How the values were obtained:
[1] = target: binary complex of TF/FVIIa (Homo sapiens, UniProt P00742); assay: lipidated TF assay (chromogenic assay measuring the FXa generated by TF/FVIIa); assay type: biochemical; details: for IC50: FVIIa 5 pM, FX 20 nM, TF 5 pM, CaCl2 5 mM, 15 min preincubation at ambient temperature, FXa substrate S2765, read-out: IC50: concentration of peptide inhibiting the rate of FX activation by 50%; for IC values (statement in words): lipidated TF assay, summary of Table 1
Experimental: The inhibitory capacity of the peptides was measured by a so-called lipidated TF assay which is a chromogenic assay measuring the FXa generated by the binary complex of TF/FVIIa. FVIIa (5 pM final concentration) and FX (20 nM) were combined in the presence of different concentrations of peptide and incubated for 15 min at ambient temperature. TF (5 pM) and CaCl2 (5 mM) were added to initiate the reaction. Reactions were quenched with EDTA and the FXa activity was measured in an amidolytic assay, using the chromogenic FXa substrate S2765 (trade name). Data from these studies with this assay are shown in FIG. 1, and Table 1 hereinafter gives the corresponding IC values. Data are plotted as the percentage of the rate of FXa formation determined without peptide versus the concentration of the following peptides: hu#154-163 (SEQ. ID. NO. 1) (.circle-solid.), mu#158-167 (SEQ. ID. NO. 2) (x) and rb#152-161 (SEQ. ID. NO. 3) (Δ).

[2] = target: TF/FVIIa complex (FX activation) (Homo sapiens, UniProt P00742); assay: Dixon plot analysis of the inhibitory mechanism of FXa formation; assay type: biochemical; details: Dixon plots; three FX concentrations or three TF concentrations in excess of FVIIa
Experimental: Different concentrations of peptide were mixed with FVIIa and three different concentrations of FX and, after addition of TF, the rate of FXa formation was determined. In another experiment, different concentrations of peptide were mixed with FVIIa and three different concentrations of TF, in excess of FVIIa. After addition of FX, the rate of FXa formation was determined. Results were plotted according to Dixon, the inverse of the rate of FXa formation versus peptide concentration. Peptide mu#158-167 (SEQ. ID. No. 2), produced linear regression lines, which intercepted on the abscissa (different FX concentrations) or above the abscissa (different TF concentrations).

binary complex of TF/FVIIa, sequence (P00742 41-179 limits assumed): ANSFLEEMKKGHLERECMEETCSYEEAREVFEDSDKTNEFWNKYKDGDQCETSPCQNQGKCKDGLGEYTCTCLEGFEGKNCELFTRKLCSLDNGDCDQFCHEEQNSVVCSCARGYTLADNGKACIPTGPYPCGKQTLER
binary complex of TF/FVIIa, sequence (P00742 235-488 limits assumed): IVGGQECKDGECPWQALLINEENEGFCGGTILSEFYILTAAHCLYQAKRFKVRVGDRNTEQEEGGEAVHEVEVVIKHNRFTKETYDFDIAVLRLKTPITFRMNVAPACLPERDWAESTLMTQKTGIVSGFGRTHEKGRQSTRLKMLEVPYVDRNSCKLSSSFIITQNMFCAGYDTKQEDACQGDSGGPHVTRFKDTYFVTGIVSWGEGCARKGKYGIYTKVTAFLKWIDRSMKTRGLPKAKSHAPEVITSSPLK
TF/FVIIa complex (FX activation), sequence (P00742 41-179 limits assumed): as the sequence (P00742 41-179 limits assumed) above
TF/FVIIa complex (FX activation), sequence (P00742 235-488 limits assumed): as the sequence (P00742 235-488 limits assumed) above

Row | IC50 [1] [µM] | IC values (statement in words) [1] | Substance | inhibitory mechanism of FXa formation [2]
1 | 100 |  | H-TLYYWKSSSS-OH [hu#154-163, H--Thr--Leu--Tyr--Tyr--Trp--Lys--Ser--Ser--Ser--Ser--OH] | 
2 | 14 | very low μm range | H--Thr--Leu--Tyr--Tyr--Trp--Arg--Ala--Ser--Ser--Thr--OH (H-TLYYWRASST-OH) [rb#152-161, 10-mer of rabbit TF residues 152-161] | 
3 | 21 | very low μm range | H-IITYRKGSST-OH [mu#158-167, H--Ile--Ile--Thr--Tyr--Arg--Lys--Gly--Ser--Ser--Thr--OH] | competes with TF or FVIIa/TF complex for interaction with FX
